# Counter-ions that a name gives are not always drawn. Activity calls are given as the source filed them.
# Columns and labels:
# [1] = viability loss in HEK293 cells – cell-based, plate reader, cherry-picked samples, cytotoxicity control, dose response (AID 743446); format: functional
# [2] = OVCAR-3 cell viability loss – plate reader, dry powder samples, PAX8 inhibitor project, dose response (AID 743044); format: functional, cell-based
# [3] = toxicity toward immortalized ovarian surface epithelium – cell-based, plate reader, dry powder samples, cytotoxicity control for PAX8 inhibitor project, dose response (AID 743045); format: functional
# [4] = growth inhibition of yeast DHODH-expressing 3D7 parasites – SYBR Green, dry powder samples, dose response (AID 1159570); format: functional, cell-based;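 also: parasite growth measured after 72 hours of compound exposure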
# [5] = blockers of bursicon-stimulated LGR2 cAMP reporter – cell-based, HEK293, CRE-luciferase reporter, cherry pick, set 2, dose response (AID 743343); format: functional;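 also: transfected cells were stimulated with diluted bursicon conditioned medium after compound addition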
# [6] = IGROV1 cell killing – plate reader, dry powder samples, PAX8 inhibitor project, dose response (AID 743043); format: functional, cell-based; details: IGROV-1
# [7] = P. falciparum Dd2 growth inhibitors, dose response, SYBR Green, cherry-picked samples (AID 1159567); format: functional, cell-based
# Paired box protein Pax-8 = Paired box protein Pax-8 (Homo sapiens, UniProt Q06710); test: PAX8 transcriptional activity inhibition in RMG-I – RMG-I cells, luciferase, cherry-pick, dose response (AID 687027); format: functional, cell-based;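 also: luciferase reporter driven by Pax8 target thyroperoxidase promoter measured by SteadyGlo luminescence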
# Paired box protein Pax-8, sequence (Q06710 whole entry): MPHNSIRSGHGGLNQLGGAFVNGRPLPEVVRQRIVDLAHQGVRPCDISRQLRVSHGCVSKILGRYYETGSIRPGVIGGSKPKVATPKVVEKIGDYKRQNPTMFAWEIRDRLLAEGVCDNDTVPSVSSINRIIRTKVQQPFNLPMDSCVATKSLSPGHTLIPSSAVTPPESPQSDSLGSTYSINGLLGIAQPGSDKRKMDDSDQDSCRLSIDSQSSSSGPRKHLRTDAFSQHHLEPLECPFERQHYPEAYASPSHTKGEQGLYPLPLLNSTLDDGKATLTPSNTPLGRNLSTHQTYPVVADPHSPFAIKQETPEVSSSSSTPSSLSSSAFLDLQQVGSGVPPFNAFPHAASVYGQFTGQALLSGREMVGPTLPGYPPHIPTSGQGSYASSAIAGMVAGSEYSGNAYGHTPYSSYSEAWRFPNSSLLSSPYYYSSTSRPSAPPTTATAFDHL
# [8] = Dd2 malaria parasite growth inhibition potency – SYBR Green, dry powder samples, dose response (AID 1159566); format: functional, cell-based;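 also: potency for growth inhibition with lower SYBR green DNA signal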
# [9] = OVCAR8 cell viability loss – plate reader, dry powder samples, PAX8 project, dose response (AID 743197); format: functional, cell-based; details: OVCAR-8
# [10] = growth inhibition of PfATP4-mutant resistant parasites – NITD609-resistant line, SYBR Green, dry powder, dose response (AID 1159571); format: functional, cell-based;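 also: parasites synchronized at ring stage by sorbitol before testing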
# [11] = A2780 cell killing – plate reader, dry powder samples, cytotoxicity control, dose response (AID 743046); format: functional, cell-based
# [12] = blockade of melanocortin 4 receptor signaling – cell-based, plate reader, cherry pick, counter-screen for LGR2 antagonist project, dose response (AID 743444); format: functional;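 also: transfected HEK 293 cells stimulated with alpha-MSH peptide; potency of inhibitors of the alpha-MSH evoked signal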
# [13] = toxicity to human HepG2 hepatoma cells – cell-based, plate reader, dry powder samples, cytotoxicity control, dose response (AID 1159569); format: functional;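 also: inhibitor potency with signal falling toward the positive control level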
# [14] = A549 cell cytotoxicity, dose response, cytotoxicity control, plate reader, cherry-pick, antagonist series (AID 743412); format: functional, cell-based
# [15] = toxicity toward HepG2 liver cells – cell-based, plate reader, cherry-pick, antagonist series, cytotoxicity control, dose response (AID 743416); format: functional
# [16] = inhibition of Env-driven cell fusion – HIV entry, plate reader, dry powder, dose response (AID 687023); format: functional, cell-based
# [17] = HIV-1 AD8 envelope cell-cell fusion blockers – cherry-pick, dose response (AID 652062); format: functional, cell-based;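 also: luciferase signal from cell-cell fusion driven by HIV-1 clade B AD8 Env; potency is for inhibitors of fusion seen as a drop in luminescence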
# [18] = blockers of HIV-1 envelope-mediated cell-cell fusion – cherry-pick, dose response (AID 652057); format: functional, cell-based
# [19] = blockers of HIV-1 ZM109 envelope-driven cell-cell fusion – HeLa effector, CEM target cells, luciferase, cherry-pick, dose response (AID 652058); format: functional, cell-based;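 also: luciferase signal from HIV-1 Env mediated cell-cell fusion of effector and target cells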
# [20] = Late stage results for the probe development effort to identify inhibitors of Plasmodium falciparum gametocytes: Luminescence-based cell-based high throughput dose response assay to identify inhibitors of viability of late stage Plasmodium falciparum gametocytes.; format: functional
# [21] = molecular target: T1, Low molecular weight phosphotyrosine protein phosphatase (Homo sapiens, UniProt P24666); test: inhibition of human LMPTP enzyme activity – biochemical, absorbance, pNPP substrate, LMPTP-A isoform, set 2, orthogonal assay, dose response (AID 743308); format: functional
# T1 sequence (P24666 whole entry): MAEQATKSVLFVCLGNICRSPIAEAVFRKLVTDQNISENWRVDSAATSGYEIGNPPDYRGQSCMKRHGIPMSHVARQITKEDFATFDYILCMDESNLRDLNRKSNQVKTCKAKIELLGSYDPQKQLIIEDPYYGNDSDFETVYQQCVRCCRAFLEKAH
# [22] = molecular target: T1, Low molecular weight phosphotyrosine protein phosphatase; test: inhibition of LMPTP-A enzymatic activity – biochemical, OMFP substrate, fluorescence intensity, set 2, dose response (AID 743307); format: functional
# [23] = molecular target: G-protein coupled receptor 183 (Homo sapiens, UniProt P32249); test: SAR confirmation of small molecule antagonists of the EBI2 receptor via a luminescent beta-arrestin assa.; format: functional
# G-protein coupled receptor 183, sequence (P32249 whole entry): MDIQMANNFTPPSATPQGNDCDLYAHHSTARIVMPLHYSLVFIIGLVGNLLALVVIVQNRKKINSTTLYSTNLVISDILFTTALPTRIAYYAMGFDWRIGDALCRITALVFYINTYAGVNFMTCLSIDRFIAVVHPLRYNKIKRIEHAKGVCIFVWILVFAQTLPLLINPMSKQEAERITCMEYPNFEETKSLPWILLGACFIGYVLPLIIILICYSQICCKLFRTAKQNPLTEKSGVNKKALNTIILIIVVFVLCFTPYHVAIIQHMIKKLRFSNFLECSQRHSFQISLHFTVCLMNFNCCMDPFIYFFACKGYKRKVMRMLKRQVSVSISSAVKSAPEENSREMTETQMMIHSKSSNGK
# cells = format: functional, cell-based; details: INS-1E
# [24] = IC50 of insulin release inhibition, rat insulinoma INS-1E line, 5 mM glucose, cell-based (AID 1117331); format: functional
smiles,measurement,setting,value
N#Cc1cccc(-c2ccc([C@@H]3[C@@H]4CN(C(=O)C5CC5)C[C@H]3N4)cc2)c1,AC50,[1],13.1 µM (active)
same,AC50,[2],12.2 µM (active)
same,AC50,[3],68.8 µM (active)
same,AC50,[4],0.405 µM (active)
same,AC50,[5],2.62 µM (active)
same,AC50,[6],7.63 µM (active)
same,AC50,[7],0.489 µM (active)
same,AC50,Paired box protein Pax-8,1.25 µM (active)
same,AC50,[8],0.267 µM (active)
same,AC50,[9],4.43 µM (active)
same,AC50,[10],0.455 µM (active)
same,AC50,[11],9.05 µM (active)
same,AC50,[12],2.49 µM (active)
same,AC50,[13],2.84 µM (active)
same,AC50,[14],1.97 µM (active)
same,AC50,[15],5.88 µM (active)
Cc1noc(C)c1S(=O)(=O)N(C)C[C@@H]1Oc2ccc(NC(=O)Nc3ccccc3)cc2CC(=O)N([C@@H](C)CO)C[C@@H]1C,AC50,[16],14.2 µM (active)
same,AC50,[17],36.9 µM (active)
same,AC50,[18],19.7 µM (active)
same,AC50,[19],15.2 µM (active)
O=C(Nc1nccs1)c1cn(-c2ccccc2)nc1-c1ccc(Cl)cc1,IC50,[20],> 37.2 µM (inactive)
CN(C)CCNc1cc(-c2ccccc2)nc2ccccc12,IC50,[21],12 µM (active)
same,IC50,[22],5.72 µM (active)
O=C(/C=C/c1ccc(Br)cc1)N1CCN(Cc2ccc(Cl)cc2C(F)(F)F)CC1,IC50,[23],0.00523 µM (active)
CN(C)CC[C@@H](c1ccc(Br)cc1)c1ccccn1 [DEXBROMPHENIRAMINE MALEATE],IC50,cells,6.37 µM (inactive)
same,IC50,[24],3.76 µM (active)
